Data on six compounds can be found in patent US11286263B2, “Macrocyclic fluorine substituted indole derivatives” (The Broad Institute, Inc., priority 2017, dated 2022).

pIC50: −log10 of the molar value. Where a name gives a salt, the structure may show the parent alone. Read-outs that look alike come from different tables or passages of the source.

Data set [1] relates to SUDHL10. Put plainly: Induction of cytotoxicity, SUDHL10 (Assay 6). Conditions: read-out: IC50 Cytotox SUDHL10 [M] (median), SUDHL10 cells, 5 h, CellTiter-Glo. (In ATP-based viability assays light output follows the ATP content of the culture.)
The test system of data set [2] is SUDHL5. In words: Antiproliferation assay SUDHL5 (Assay 7). The format is cell-based. Conditions: SUDHL5 cells, CellTiter-Glo, median, read-out: IC50 Antiproli SUDHL5 [M] (median). The protocol: (§1) Assessment of the Anti-Proliferative Effect of Compounds in Different Cell Lines
(§2) The impact of compounds on the proliferation of different cell lines was assessed using the CellTiter-Glo® Luminescent Cell Viability reagent from Promega (G7573).
(§3) In parallel, cells were plated in a reference (day 0) plate for time zero determination.
(§4) Rim wells were excluded. The cells were incubated for 72 h hours in a humidified incubator at 37° C. The day 0 plate was measured by adding 30 μL/well of CTG solution (CellTiter-Glo® Luminescent Cell Viability reagent, Promega G7573) to time zero wells in the reference plate followed by a 10 minutes incubation and luminescence reading at 0.1 ms. using the PHERAstar FS microplate reader (BMG Labtech).
(§5) After 72 h incubation, the treated plates were measured in the same way as the day 0 plate mentioned above.

Data set [3] has as its system SUDHL5. Put plainly: Induction of cytotoxicity, SUDHL5 (Assay 6). The note with it: read-out: IC50 Cytotox SUDHL5 [M] (median), SUDHL5 cells, 5 h, CellTiter-Glo.
For data set [4], the target named is MCL-1 (Homo sapiens (Human), UniProt Q07820, K194A/K197A/R201A). Put plainly: Protein-protein interaction assay MCL-1/Noxa BH3 peptide (MCL-1 assay), TR-FRET. Format: binding. Conditions: MCL-1/Noxa BH3 peptide TR-FRET; median. The protocol:
Protein-Protein Interaction Assay: MCL-1/Noxa BH3 Peptide (MCL-1 Assay)
The dose-dependent inhibition by the compounds described in this invention of the interaction between MCL-1 and the BH3 domain of Noxa (both human) was determined using a steady state binding competition assay with time-resolved fluorescence energy transfer (TR-FRET) readout. For that purpose MCL-1 (amino acids 173-321, N-terminal fused to Maltose Binding Protein (MBP) SEQ ID 1)) and a synthetic Noxa BH3-derived peptide of sequence Biotin-PEG2-PEG2-PAELEVE-Nva-ATQLRRFGDKLNFRQKLL-amide (SEQ ID 2) served as protein receptor and tracer ligand respectively. The MBP-MCL-1 was purchased from Beryllium (Bedford, Mass., USA). The expression and purification of this protein construct has been described elsewhere (DOI:10.1371/journal.pone.0125010). The Noxa BH3-derived peptide can be obtained from e.g. Biosyntan (Berlin, Germany).
In the assay 11 different concentrations of each compound (0.1 nM, 0.33 nM, 1.1 nM, 3.8 nM, 13 nM, 44 nM, 0.15 μM, 0.51 μM, 1.7 μM, 5.9 μM and 20 μM) were typically measured as duplicates in the same microtiter plate. For that, 100-fold concentrated DMSO solutions were prepared by serial dilutions (1:3.4) of a 2 mM stock solution in a clear, 384-well microtiter plate (Greiner Bio-One, Frickenhausen, Germany). From there, 50 nl were transferred in a dark test plate (Greiner Bio-One, Frickenhausen, Germany). The assay was initiated by addition of 2 μl of a 2,5-fold concentrated MBP-MCL-1 solution (usually for a 1 nM end concentration in 5 μl reaction volume) in aqueous assay buffer [50 mM Tris/HCl pH 7, 100 mM sodium chloride (NaCl), 50 mM potassium fluoride (KF), 0.005% Tween-20, 2 mM DTT, 0.1% bovine gamma globulin (BGG)] to the compounds in the assay plate. This was followed by a 10-minute incubation step at 22° C. for pre-equilibration of the putative complex between MBP-MCL-1 and the compounds. After that, 3 μl of a 1.67-fold concentrated solution (in assay buffer) consisting of Noxa BH3-derived peptide (1 nM end concentration) and TR-FRET detection reagents [1.67 nM anti-MBP-Eu cryptate and 1.67 nM streptavidin-XL665 (both from Cisbio Bioassays, Codolet, France)], were added.
The mixture was incubated in the dark for one hour at 22° C. and then overnight at 4° C. The formation of MCL-1/Noxa complexes was determined by measuring the resonance energy transfer of the anti-MBP-Eu-cryptate antibody to the streptavidin-XL665 present in the reaction. For that purpose, the fluorescence emission at 620 nm and 665 nm after excitation at 330-350 nm was measured in a TR-FRET measuring instrument, for instance a Rubystar or a Pherastar (both from BMG Lab Technologies, Offenburg, Germany) or a Viewlux (Perkin-Elmer). The ratio of the emission at 665 nm and at 622 nm was used as indicator of the amount of MCL-1/NOXA complexes present.
The resulting data (ratio) were normalized, taking 0% inhibition as the mean value of control measurements (usually 32 data points) where all reagents were included. In this case 50 nl DMSO were used instead of compounds. A 100% inhibition corresponded to the mean value of control measurements (usually 32 data points) where all reagents except MCL-1 were included. IC50 values were determined by regression analysis based on a 4 parameter equation (minimum, maximum, IC50, Hill; Y=Max+(Min−Max)/(1+(X/IC50)^Hill) using the Screener Software (Genedata).
For orientation: In TR-FRET formats the signal depends on donor and acceptor labels being close together.

Data set [5] has as its system SUDHL5. Put plainly: Induction of caspase-3/7 activity, SUDHL5 (Assay 4). The format is cell-based. The note with it: SUDHL5 cells. The protocol: (§6) Induction of Caspase-3/7 Activity upon Treatment of Cells with Selected Compounds
(§7) The BH3-domain of MCL-1 sequesters pro-apoptotic proteins, thereby inhibiting apoptosis. In contrast, MCL-1 inhibitors are expected to antagonize this effect leading to an increase in apoptosis, which can be determined by measuring the activity of caspase-3/7.
(§8) The activity of caspase-3/7 was determined in DLBCL (Diffuse large B-cell lymphoma) cell lines (SUDHL5 and SUDHL10) upon treatment with different compounds, using the Caspase-Glo® 3/7 reagent from Promega (G8092).
(§9) Rim wells were excluded. The cells were incubated for 3 h hours in a humidified incubator at 37° C.
(§10) For the evaluation of the results, the background measured with “medium-only” was subtracted from all other values. […] The Bella DRC Master Sheet was used to calculate EC50s, with fixed C0=1 and Cl=plateau/max induction for the reference compound.

Data set [6] concerns AMO-1. In words: Antiproliferation assay AMO-1 (Assay 7). The note with it: AMO-1 cells, CellTiter-Glo, single determinations, read-out: IC50 Antiproli AMO-1. Format: cell-based. The protocol: as §1, §2, §3, §4, §5
Data set [7] deals with SUDHL10. In words: Induction of caspase-3/7 activity, SUDHL10 (Assay 4). Format: cell-based. Conditions: SUDHL10 cells. The protocol: as §6, §7, §8, §9, §10
Data set [8] concerns MV-4-11. Put plainly: Antiproliferation assay MV-4-11 (Assay 7). The format is cell-based. The note with it: MV-4-11 cells, CellTiter-Glo, single determinations, read-out: IC50 Antiproli MV-4-11. The protocol: as §1, §2, §3, §4, §5
In data set [9] the test system is A2780. In words: Antiproliferation assay A2780 (Assay 7). The format is cell-based. The note with it: A2780 cells, CellTiter-Glo, single determinations, read-out: IC50 Antiproli A2780. The protocol:
as §1, §2, §3, §4, §5

Setting [10] is: Homo sapiens, SU-DHL-5, 3 h, Caspase-Glo 3/7, median.
[11] abbreviates: Homo sapiens, SU-DHL10, 3 h, Caspase-Glo 3/7, median.

MCL-1, sequence (Q07820 whole entry K194A/K197A/R201A, looked up): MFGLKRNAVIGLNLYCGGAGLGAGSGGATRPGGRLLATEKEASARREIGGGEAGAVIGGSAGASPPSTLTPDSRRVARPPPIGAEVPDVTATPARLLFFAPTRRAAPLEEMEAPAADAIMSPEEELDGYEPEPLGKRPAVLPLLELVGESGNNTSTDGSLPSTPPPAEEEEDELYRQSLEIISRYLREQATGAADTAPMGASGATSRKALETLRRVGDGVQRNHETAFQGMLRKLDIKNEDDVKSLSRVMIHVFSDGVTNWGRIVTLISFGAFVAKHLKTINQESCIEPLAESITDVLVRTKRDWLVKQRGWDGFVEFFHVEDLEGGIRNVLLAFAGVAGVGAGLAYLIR

For orientation: IC50 means the concentration that gives 50% inhibition. The term EC50 denotes the concentration giving half of the maximal effect. Low readings indicate a more potent agent, high ones a less potent agent. A word on the pIC50: it is −log10 of the IC50, conventionally taken in molar units. As to `CCc1c2c(nn1C)COCCCCn1c(C(=O)O)c(CCCOc3ccc(F)c4ccccc34)c3ccc(F)c-2c31` (single isomer, unassigned; enantiomer 2) [Example 28, 3-ethyl-4-fluoro-7-{3-[(4-fluoronaphthalen-1-yl)oxy]propyl}-2-methyl-2,10,11,12,13,15-hexahydropyrazolo[4′,3′:9,10][1,6]oxazacycloundecino[8,7,6-hi]indole-8-carboxylic acid-N-ethylethanamine salt (enantiomer 2)], the IC50 in data set [1] was above 3.3e-05 M; in data set [2] (72 h), 1.2e-05 M; in data set [3] it was 1.8e-05 M; in [4], 65 nM. Further, the 50% effective concentration (EC50) in data set [5] (3 h, Caspase-Glo 3/7, median) was above 33 µM; in data set [7] (3 h, Caspase-Glo 3/7, median) it was above 33 µM. In addition, the pIC50 is below 4.48 in data set [6] (72 h) and 4.86 in data set [8] (72 h).
Turning to `Cc1c2c(nn1C)C[N+](C)(C)CCCCn1c(C(=O)O)c(CCCOc3cccc4ccccc34)c3ccc(F)c-2c31` [Example 50, 8-carboxy-4-fluoro-2,3,14,14-tetramethyl-7-[3-(1-naphthyloxy)propyl]-10,11,12,13,14,15-hexa-hydro-2H-pyrazolo[3′,4′:8,9][1,6]diazacycloundecino[10,11,1-hi]indol-14-ium trifluroacetate], the IC50 in [1] (Homo sapiens, SU-DHL10, 5 h) is above 3.3e-05 M; in data set [2] (Homo sapiens, SU-DHL-5, 72 h) it was 6.1e-06 M; in data set [3] (Homo sapiens, SU-DHL-5, 5 h), 1.6e-05 M; in data set [4], 0.84 nM. The negative logarithm of the IC50 (pIC50) was below 4.48 in [9] (Homo sapiens, A2780, 72 h) and 4.87 in data set [8] (Homo sapiens, MV4-11, 72 h). The EC50 in data set [5] (setting [10]) was 20 µM; in data set [7] (setting [11]) it was above 33 µM.
Turning to `CCc1nn(C)c2c1-c1c(F)ccc3c(CCCOc4ccc(F)c5ccccc45)c(C(=O)O)n(c13)CCCCOC2` (racemic) [Example 41, (rac)-12-ethyl-13-fluoro-1-(3-((4-fluoronaphthalen-1-yl)oxy)propyl)-10-methyl-4,5,6,7,9,10-hexahydropyrazolo[4′,3′:9,10][1]oxa[6]azacycloundecino[8,7,6-hi]indole-2-carboxylic acid], the IC50 in [1] (Homo sapiens, SU-DHL10, 5 h) was determined as 7.1e-06 M; in data set [2] (Homo sapiens, SU-DHL-5, 72 h) it was 2e-06 M; in [3] (Homo sapiens, SU-DHL-5, 5 h), 3e-06 M; in data set [4], 2 nM. Moreover, the results for the EC50 in data set [5] (setting [10]) and in [7] (setting [11]) were 2.2 µM and 14 µM, respectively. For the same compound, the pIC50 in data set [6] (72 h) is 4.89; in [6] (Homo sapiens, AMO1, 72 h) it was 4.82; in data set [8] (Homo sapiens, MV4-11, 72 h), 4.96; in data set [8] (72 h), 4.82.
Consider `Cc1c2c(nn1C)COCCCCn1c(C(=O)O)c(CCCOc3cccc4ccccc34)c3ccc(F)c-2c31` (single isomer, unassigned; enantiomer 2) [Example 4, 4-fluoro-2,3-dimethyl-7-[3-(naphthalen-1-yloxy)propyl]-2,10,11,12,13,15-hexahydropyrazolo-[4′,3′:9,10][1,6]oxazacycloundecino[8,7,6-hi]indole-8-carboxylic acid-N-ethylethanamine salt (enantiomer 2)], for which the half-maximal inhibitory concentration (IC50) in data set [2] (72 h) is above 3.3e-05 M; in [3], above 3.3e-05 M; in data set [4] it was 65 nM. Besides, the negative logarithm of the IC50 (pIC50) in [9] (72 h, listed as 04) was below 4.48; in data set [8] (72 h, listed as 04) it was below 4.48. Moreover, the EC50 in [5] (3 h, Caspase-Glo 3/7, median) is above 33 µM.
As for `Cc1c2c(nn1C)COCCCCn1c(C(=O)O)c(CCCOc3ccc(F)c4ccccc34)c3ccc(F)c-2c31` (single isomer, unassigned; enantiomer 2) [Example 17, 4-fluoro-7-{3-[(4-fluoronaphthalen-1-yl)oxy]propyl}-2,3-dimethyl-2,10,11,12,13,15-hexahydro-pyrazolo[4′,3′:9,10][1,6]oxazacycloundecino[8,7,6-hi]indole-8-carboxylic acid (enantiomer 2)], the IC50 in data set [1] is above 3.3e-05 M; in [2] (72 h), 1.1e-05 M; in [3], above 3.3e-05 M; in data set [4], 60 nM. The 50% effective concentration (EC50) in [5] (3 h, Caspase-Glo 3/7, median) was above 33 µM; in data set [7] (3 h, Caspase-Glo 3/7, median), above 33 µM. Besides, the results for the pIC50 in data set [6] (72 h) and in [8] (72 h) were below 4.48 and 4.68, respectively.
For `CCc1nn(C)c2c1-c1c(F)ccc3c(CCCOc4ccc(F)c5ccccc45)c(C(=O)O)n(c13)CCCCOC2` (single isomer, unassigned; enantiomer 2) [Example 43, 3-ethyl-4-fluoro-7-{3-[(4-fluoronaphthalen-1-yl)oxy]propyl}-1-methyl-1,10,11,12,13,15-hexahydropyrazolo[4′,3′:9,10][1,6]oxazacycloundecino[8,7,6-hi]indole-8-carboxylic acid (enantiomer 2)], the IC50 in data set [1] is above 3.3e-05 M; in data set [2] (72 h) it was 1.5e-05 M; in [3] it was above 3.3e-05 M; in [4], 110 nM. The EC50 in data set [5] (3 h, Caspase-Glo 3/7, median) is above 33 µM; in data set [7] (3 h, Caspase-Glo 3/7, median), above 33 µM. Further, the results for the pIC50 in [6] (72 h) and in data set [8] (72 h) were below 4.48 and 4.90, respectively.
